# ChEMBL document CHEMBL5143531, “Towards multi-target antidiabetic agents: In vitro and in vivo evaluation of 3,5-disubstituted indolin-2-one derivatives as novel α-glucosidase inhibitors” (Bioorg Med Chem Lett, 2022)
# Tests used:
# [1] = test system: Saccharomyces cerevisiae; experiment: Inhibition of yeast alpha-glucosidase at 100 uM
# [2] = test system: Rattus norvegicus; experiment: Anti-hyperglycemic activity in Wistar rat assessed as reduction in plasma glucose AUC (0 to 120 mins) at 10 mg/kg, po followed by sucrose load by oral sucrose tolerance test; format: functional
# [3] = test system: Rattus norvegicus; experiment: Anti-hyperglycemic activity in Wistar rat assessed as reduction in plasma glucose AUC (0 to 120 mins) at 10 mg/kg, po followed by glucose load by oral glucose tolerance test; format: functional
# [4] = molecular target: Glycogen synthase kinase-3 beta (Homo sapiens, UniProt P49841)
# Glycogen synthase kinase-3 beta, sequence (P49841 whole entry): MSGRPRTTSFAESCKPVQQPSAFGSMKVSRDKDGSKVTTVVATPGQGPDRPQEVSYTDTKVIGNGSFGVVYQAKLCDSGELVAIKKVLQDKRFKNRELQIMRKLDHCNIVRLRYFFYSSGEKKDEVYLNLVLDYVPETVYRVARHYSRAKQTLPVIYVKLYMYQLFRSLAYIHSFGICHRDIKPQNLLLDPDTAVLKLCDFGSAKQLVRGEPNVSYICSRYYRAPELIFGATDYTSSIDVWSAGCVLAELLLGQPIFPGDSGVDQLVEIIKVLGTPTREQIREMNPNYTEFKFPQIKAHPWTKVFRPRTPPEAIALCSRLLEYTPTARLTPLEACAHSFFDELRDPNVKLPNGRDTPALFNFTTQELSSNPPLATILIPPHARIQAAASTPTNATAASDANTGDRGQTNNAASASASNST
# [5] = Inhibition of yeast alpha-glucosidase; parameters: species or system Saccharomyces cerevisiae
# [6] = test system: Rattus norvegicus; experiment: Anti-hyperglycemic activity in Wistar rat assessed as reduction in plasma glucose AUC (0 to 120 mins) at 5 mg/kg, po followed by maltose load by oral maltose tolerance test; format: functional
# [7] = Inhibition of yeast alpha-glucosidase using p-nitrophenyl glycoside as substrate preincubated with enzyme for 15 mins followed by substrate addition for 30 mins; parameters: species or system Saccharomyces cerevisiae
# [8] = test system: Saccharomyces cerevisiae; experiment: Potency index, ratio of acarbose IC50 to test compound IC50 for inhibition of yeast alpha-glucosidase
# [9] = test system: Rattus norvegicus; experiment: Anti-hyperglycemic activity in Wistar rat assessed as reduction in plasma glucose AUC (0 to 120 mins) at 5 mg/kg, po followed by glucose load by oral glucose tolerance test; format: functional
# [10] = test system: Rattus norvegicus; experiment: Anti-hyperglycemic activity in Wistar rat assessed as reduction in plasma glucose AUC (0 to 120 mins) at 5 mg/kg, po followed by sucrose load by oral sucrose tolerance test; format: functional
# [11] = Inhibition of yeast alpha-glucosidase using p-nitrophenyl glycoside as substrate preincubated with enzyme for 30 mins followed by substrate addition for 60 mins by spectrophotometric analysis; parameters: species or system Saccharomyces cerevisiae
inhibition [1] [%],SMILES,further results
37.5,O=C1Nc2ccccc2C1=CC(=O)c1ccco1 (mixture of isomers),–
21.6,"O=C1Nc2ccccc2C1=Cc1ccc(O)cc1 (single isomer, unassigned; isomer 1)",–
2.08,O=C1Nc2ccccc2C1=Cc1cccnc1 (mixture of isomers),–
40.8,Cc1[nH]ncc1C=C1C(=O)Nc2ccccc21 (mixture of isomers),–
75.5,"Cc1nn(-c2ccccc2)c(C)c1C=C1C(=O)Nc2ccccc21 (single isomer, unassigned)",IC50 [5]: 153 µM
12.6,Cc1n[nH]c(C)c1C=C1C(=O)Nc2ccccc21 (mixture of isomers),–
34.5,Cn1cc(C=C2C(=O)Nc3ccccc32)cn1,–
81.6,O=C1Nc2ccccc2C1=Cc1ccc([N+](=O)[O-])cc1 (mixture of isomers),IC50 [5]: 62.4 µM
33.6,O=C1Nc2ccc([N+](=O)[O-])cc2C1=Cc1cn[nH]c1C(=O)O (mixture of isomers),–
-10,O=C1Nc2ccccc2C1=Cc1ccccn1,–
-1.25,O=C1Nc2ccccc2C1=Cc1cccs1 (mixture of isomers),–
11.4,O=C1Nc2ccccc2C1=Cc1cn[nH]c1C(=O)O (mixture of isomers),–
81.1,COc1ccc2c(c1)C(=CC(=O)O)C(=O)N2 (mixture of isomers),IC50 [5]: 26.4 µM
-3.17,O=C1Nc2ccccc2C1=Cc1ccncc1 (mixture of isomers),–
-3.81,O=C1Nc2ccc(Br)cc2C1=CC(=O)c1ccco1 (mixture of isomers),–
-1.49,O=C1Nc2ccc(Br)cc2C1=Cc1ccccn1,–

# Further lines, the molecule ahead of its results:
SMILES,inhibition [1] [%],further results
CN1C(=O)C2(CC2C#N)c2cc(Br)ccc21 (stereo unspecified),61.2,–
Cc1ccc(C(=O)CC2(O)C(=O)Nc3ccc(NC(=O)c4ccccc4)cc32)cc1 (stereo unspecified),52.2,–
O=C1Nc2ccc(Br)cc2C1=Cc1cccnc1,10.7,–
Cc1ccc(C(=O)CC2(O)C(=O)Nc3ccccc32)cc1 (stereo unspecified),-4.01,–
Nc1ccc(CC2C(=O)Nc3ccccc32)cc1 (stereo unspecified),-3.64,–
O=C1Nc2ccc(NC(=O)c3ccco3)cc2C1=Cc1ccc(O)cc1 (mixture of isomers),57.9,–
"COc1cc(C=C2C(=O)Nc3ccc(NC(=O)c4ccco4)cc32)cc(OC)c1OC (single isomer, unassigned; isomer 1)",31.8,–
N#C[C@@H]1CCCN1C(=O)CNC12CC3CC(CC(O)(C3)C1)C2 [VILDAGLIPTIN],–,inhibition in vivo at 10 mg/kg [2]: 17.9%; inhibition in vivo at 10 mg/kg [3]: 28.6%
CC(=O)Nc1ccc2c(c1)C(CC(=O)O)(OC(C)=O)C(=O)N2 (stereo unspecified),-5.09,–
"O=C1Nc2ccc([N+](=O)[O-])cc2C1=CC(=O)c1ccco1 (single isomer, unassigned; isomer 1)",8.9,–
O=C1Nc2ccc(NC(=O)c3ccccc3)cc2C1=Cc1ccc(O)cc1 (mixture of isomers),92.3,IC50 [4]: 4.34 µM; IC50 [5]: 136 µM
C[C@H]1O[C@H](O[C@H]2[C@H](O)[C@@H](O)[C@@H](O[C@H]3[C@H](O)[C@@H](O)C(O)O[C@@H]3CO)O[C@@H]2CO)[C@H](O)[C@@H](O)[C@@H]1N[C@H]1C=C(CO)[C@@H](O)[C@H](O)[C@H]1O (stereo partly specified) [ACARBOSE],46.6,inhibition in vivo at 5 mg/kg [6]: 37.2%; IC50 [5]: 436 µM
COC(=O)Nc1ccc2c(c1)C(=Cc1ccc(Br)cc1)C(=O)N2 (mixture of isomers),81.7,IC50 [5]: 68.9 µM
O=C1Nc2ccc([N+](=O)[O-])cc2C1=Cc1ccncc1 (mixture of isomers),-1.71,–
O=C(N/N=C/c1cc(O)c(O)c(O)c1)c1cc2ccccc2[nH]1,–,IC50 [7]: 2.3 µM
COC(=O)Nc1ccc2c(c1)C(=Cc1ccc([N+](=O)[O-])cc1)C(=O)N2 (mixture of isomers),103,Ratio IC50 [8]: 80; inhibition in vivo at 5 mg/kg [6]: 42.1%; IC50 [5]: 6.78 µM; inhibition in vivo at 5 mg/kg [9]: 12.3%; inhibition in vivo at 5 mg/kg [10]: 28.8%
"COc1ccc2c(c1)C(=CC#N)C(=O)N2Cc1ccccc1 (single isomer, unassigned; isomer 1)",15.5,–

SMILES,inhibition [1] [%],further results
COC(=O)Nc1ccc2c(c1)C(=Cc1ccc(O)cc1)C(=O)N2,57.9,IC50 [5]: 76.7 µM
"CC(=O)Nc1ccc2c(c1)C(=Cc1cccc(O)c1)C(=O)N2 (single isomer, unassigned; isomer 1)",14.9,–
COc1ccc(C(=O)CC2(O)C(=O)Nc3ccc(Br)cc32)cc1 (stereo unspecified),-3.83,–
O=C(CSc1nnc2c(n1)[nH]c1ccccc12)c1cccc(O)c1,–,IC50 [11]: 2.5 µM
CCC(=O)Nc1cc(NC(=O)CC)c2c(c1)C(CC#N)(OC(=O)CC)C(=O)N2 (stereo unspecified),14.4,–
CN1C(=O)C(=Cc2ccccn2)c2ccccc21,19.9,–
N#CCC1(O)C(=O)Nc2ccc(NC(=O)c3ccccc3)cc21 (stereo unspecified),29.2,–
COc1ccc2c(c1)C(O)(CC(=O)c1ccc(C)cc1)C(=O)N2 (stereo unspecified),65.4,IC50 [5]: 60 µM
O=C1Nc2ccc([N+](=O)[O-])cc2C1=Cc1cccnc1,-7.99,–
COc1cc(NC(C)=O)c2c(c1)C(CC#N)(OC(C)=O)C(=O)N2 (stereo unspecified),4.75,–
CN1C(=O)C(=Cc2ccc(O)cc2)c2ccccc21 (mixture of isomers),33.2,–
O=C1Nc2ccccc2C12CC2c1ccccn1 (stereo unspecified),12.1,–
O=C1Nc2ccc(Br)cc2C1=Cc1ccncc1 (mixture of isomers),-0.73,–
Cc1ccc(C(=O)CC2(O)C(=O)Nc3ccc(Br)cc32)cc1 (stereo unspecified),-3.94,–
O=C1Nc2ccc(NC(=O)c3ccccc3)cc2C1=Cc1ccc([N+](=O)[O-])cc1 (mixture of isomers),104,IC50 [5]: 56.6 µM
COc1cc(C=C2C(=O)Nc3ccc(NC(C)=O)cc32)cc(OC)c1OC,-9.74,–
